Laboratory results as given in article PMC10353390, “Biological and Structural Analyses of New Potent Allosteric Inhibitors of HIV-1 Integrase” (Antimicrobial Agents and Chemotherapy, 2023).

How the values were obtained:
[1] = system: NL4-3 HIV-1 strain; assay: Multiple-round infection assay in MT4 cells, NL4-3; type: cell-based; details: MT4 cells
[2] = system: VSV-G-pseudotyped NL4-3Δenv-luc; assay: microbe, parasite or virus in culture; type: cell-based, HIV-1
[3] = system: HIV-1 strains resistant to INSTIs, NRTIs, NNRTIs or PIs; type: cell-based
Experimental: To this end, we used both recombinant viruses constructed by introducing described drug resistance mutations into NL4-3 HIV-1 clone as well as drug-resistant clinical HIV-1 isolates.
(§1) MT4 cells growing exponentially at the density of 10^6/mL were infected with HIV-1 strain NL4-3 at a multiplicity of infection (MOI) of 0.001 for 2 h in the presence of different concentrations of compounds, and the CellTiter-Glo luminescent reagent (Promega) was used to quantify cell viability as described previously ([12]).

[4] = system: primary HIV-1 isolates with polymorphisms at IN positions 124 and 125; assay: Multiple-round infection of MT4 cells with primary HIV-1 isolates polymorphic at IN positions 124 and 125; type: cell-based; details: primary isolate
Experimental: Next, we evaluated the potency of the BDM-2 series of INLAIs against several primary HIV-1 isolates with polymorphisms at IN positions 124 and 125.
as §1

[5] = target: HIV-1 IN-LEDGF/p75 interaction (Human immunodeficiency virus type 1 group M subtype B, UniProt P12497); assay: biochemical
[6] = target: T1, HIV-1 IN (Human immunodeficiency virus type 1 group M subtype B, UniProt P12497); assay: HTRF IN multimerization assay; type: biochemical; details: mean ± SD
T1 construct: made in house
Source text: A key property of INLAIs is the ability to promote HIV-1 IN homo-multimerization ([39][–][42]). […] The maximal signal (plateau) in our IN aggregation assay corresponds to the highest HTRF signal increase under saturating INLAI concentration, relative to baseline level. Thus, MUT916, MUT884, MUT871, and MUT872 increased HIV-1 IN aggregation 3.7 to 4.4-fold, while BDM-2, BI-224436, and S-I-82 did so 5 to 6-fold (Table 1).

[7] = Cytotoxicity assay in MT4 cells; type: cell-based; details: human, MT4 cells (proliferating human T-cell line), CellTiter-Glo
Source text: Growth inhibition was monitored in a proliferating human T-cell line (MT4) with different concentrations of compounds, using the CellTiter-Glo luminescent reagent (Promega), as previously described ([12]).

[8] = system: recombinant NL4-3 viruses with polymorphisms at IN positions 124 and 125; assay: Multiple-round infection of MT4 cells with recombinant NL4-3 viruses polymorphic at IN positions 124 and 125; type: cell-based, HIV-1
Source text: Located on the HIV-1 IN CCD dimerization interface, the principal INLAI binding pocket overlaps with a hot spot of amino acid sequence polymorphism involving IN residues 124 and 125 ([16]). To test if the new INLAIs maintained antiviral activity against major polymorphisms, we introduced all major combinations of residues found in circulating HIV-1 strains at positions 124 and 125 into NL4-3 HIV-1 molecular clone. In total, we evaluated 15 such combinations that collectively covered 98% of all HIV-1 clade polymorphisms involving these positions ([48]). To gauge effects on the antiviral activity, we calculated the EC50 fold change (FC) relative to wild type NL4-3 HIV-1 strain that features Thr124 and Thr125 (TT; specific polymorphisms are referred to by a single letter amino acid code).
as §1

[9] = system: HXB2 HIV-1 strain; assay: Multiple-round infection assay in MT4 cells, HXB2; type: cell-based; details: Human immunodeficiency virus 1, HXB2; multiple-round infection, MT4 cells; mean ± SD, n > 5; read-out: EC50 HXB2
Experimental: Antiretroviral activity of BDM-2 and its analogs was first evaluated in lymphoblastoid cell line MT4 and in primary human T lymphocytes using NL4-3 and HXB2 laboratory HIV-1 isolates.
as §1

[10] = system: NL4-3 HIV-1 with INLAI-selected IN single point mutations; type: cell-based
[11] = target: CCD of HIV-1 IN and IBD of LEDGF/p75 (Human immunodeficiency virus type 1 group M subtype B, UniProt P12497); assay: biochemical
Experimental: The INLAIs were tested for the ability to inhibit the HIV-1 IN-LEDGF/p75 interaction in a homogeneous time-resolved fluorescence (HTRF) assay. Our assays used either full-length IN and LEDGF/p75 proteins or their respective minimally sufficient interaction domains: the CCD of HIV-1 IN and the IBD of LEDGF/p75 (Table 1).
HTRF-based CCD-IBD interaction, IN-LEDGF/p75 interaction and IN multimerization assays were performed as described previously ([12]).

[12] = INSTI-resistant, NL4-3 background

## Cc1ccc(C2CC2)c(-c2cc(F)c3c(c2C)CCCO3)c1[C@H](OC1CC1)C(=O)O [MUT916]
[1]; Human immunodeficiency virus 1, NL43, multiple-round infection, from dose response curves, read-out: EC90 NL4-3
  EC90: 30 ± 15 nM
[1]; Human immunodeficiency virus 1, NL43, multiple-round infection, mean ± SD, n > 5, read-out: EC50 NL4-3
  EC50: 20 ± 9 nM
[1]
  Selectivity index CC50/EC50 NL4-3: 3,900
[2]
  EC50 ratio (single/multiple-round infection): 105
[2]; Human immunodeficiency virus 1, NL43, MT4, read-out: EC50 in single-round infection
  EC50: 2100 ± 200 nM
[3]; [12]
  Fold change in EC50 relative to NL4-3, E92Q: 1
  Fold change in EC50 relative to NL4-3, G140S: 1
  Fold change in EC50 relative to NL4-3, G140S/Q148H: 1
  Fold change in EC50 relative to NL4-3, N155H: 1
  Fold change in EC50 relative to NL4-3, Q148H: 1
  Fold change in EC50 relative to NL4-3, Y143R: 0.4
[3]; NRTI-resistant clone
  Fold change in EC50 relative to NL4-3, NLAY351717: 1
[3]; NRTI/NNRTI-resistant clone
  Fold change in EC50 relative to NL4-3, NLAY351753: 2
[3]; NRTI/NNRTIs group, NL4-3 background
  Fold change in EC50 relative to NL4-3, K103N/Y181C: 1
[3]; PI-resistant virus
  Fold change in EC50 relative to NL4-3, ARP-4595: 2
  Fold change in EC50 relative to NL4-3, ARP-4596: 1
  Fold change in EC50 relative to NL4-3, ARP-11801: 2
  Fold change in EC50 relative to NL4-3, ARP-11803: 2
  Fold change in EC50 relative to NL4-3, ARP-11807: 2
  Fold change in EC50 relative to NL4-3, ARP-11808: 2
[4]; IN 124/125 AA
  Fold change in EC50 relative to parental NL4-3, CAM2BBY (CRF02): 1
  Fold change in EC50 relative to parental NL4-3, E0836M4 (D): 1
  Fold change in EC50 relative to parental NL4-3, KER2008 (A): 1
  Fold change in EC50 relative to parental NL4-3, NP1525 (CRF01): 1
  Fold change in EC50 relative to parental NL4-3, NP1695 (CRF02): 2
  Fold change in EC50 relative to parental NL4-3, TZA125 (C): 0.4
[4]; IN 124/125 GA
  Fold change in EC50 relative to parental NL4-3, KSM4030 (A): 1
  Fold change in EC50 relative to parental NL4-3, vGA (C): 5
[4]; IN 124/125 NA
  Fold change in EC50 relative to parental NL4-3, 99ET14 (C): 2
  Fold change in EC50 relative to parental NL4-3, NP1538 (B): 2
  Fold change in EC50 relative to parental NL4-3, vNA_1 (B): 4
  Fold change in EC50 relative to parental NL4-3, vNA_2 (CRF02): 10
[4]; IN 124/125 NV
  Fold change in EC50 relative to parental NL4-3, vNV (B): 1
[4]; IN 124/125 SA
  Fold change in EC50 relative to parental NL4-3, vSA_1 (B): 3
  Fold change in EC50 relative to parental NL4-3, vSA_2 (CRF02): 4
[4]; IN 124/125 TA
  Fold change in EC50 relative to parental NL4-3, vTA_1 (B): 2
  Fold change in EC50 relative to parental NL4-3, vTA_2 (CRF02): 2
[5]
  IC50: 46 ± 16 nM
[6]; concentration for 50% maximum activation of multimerization
  AC50: 22 ± 2 nM
[6]; maximum multimerization reached versus baseline
  IN multimerization Plateau: 370 ± 60%
[7]
  CC50: 78000 ± 6000 nM
[8]; recombinant NL4-3, IN 124/125 AA
  Fold change in EC50 relative to parental NL4-3, AA: 1
[8]; recombinant NL4-3, IN 124/125 AM
  Fold change in EC50 relative to parental NL4-3, AM: 0.2
[8]; recombinant NL4-3, IN 124/125 AT
  Fold change in EC50 relative to parental NL4-3, AT: 0.5
[8]; recombinant NL4-3, IN 124/125 AV
  Fold change in EC50 relative to parental NL4-3, AV: 0.4
[8]; recombinant NL4-3, IN 124/125 GA
  Fold change in EC50 relative to parental NL4-3, GA: 1
[8]; recombinant NL4-3, IN 124/125 GT
  Fold change in EC50 relative to parental NL4-3, GT: 1
[8]; recombinant NL4-3, IN 124/125 NA
  Fold change in EC50 relative to parental NL4-3, NA: 4
[8]; recombinant NL4-3, IN 124/125 NT
  Fold change in EC50 relative to parental NL4-3, NT: 1
[8]; recombinant NL4-3, IN 124/125 NV
  Fold change in EC50 relative to parental NL4-3, NV: 0.4
[8]; recombinant NL4-3, IN 124/125 SA
  Fold change in EC50 relative to parental NL4-3, SA: 1
[8]; recombinant NL4-3, IN 124/125 ST
  Fold change in EC50 relative to parental NL4-3, ST: 1
[8]; recombinant NL4-3, IN 124/125 TA
  Fold change in EC50 relative to parental NL4-3, TA: 1
[8]; recombinant NL4-3, IN 124/125 TM
  Fold change in EC50 relative to parental NL4-3, TM: 0.2
[8]; recombinant NL4-3, IN 124/125 TV
  Fold change in EC50 relative to parental NL4-3, TV: 0.4
[9]
  EC50: 8.8 ± 0.8 nM
[10]
  EC50 fold change compared to wild type NL4-3, A128T: 4
  EC50 fold change compared to wild type NL4-3, H171Q: 1
  EC50 fold change compared to wild type NL4-3, N222K: 3
  EC50 fold change compared to wild type NL4-3, T174I: 14
  EC50 fold change compared to wild type NL4-3, Y99H: 3
[11]
  IC50: 19 ± 8 nM
